Several values for one entry are separate records, joined by “and”; a condition that tells them apart may be missing. Equal entries are not always repeated.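 Following 48 hours of exposure in 96-well plates, responses at five concentrations were used to interpolate endpoints linearly. The concentration for 50% growth inhibition is given as GI50.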 Activity calls are given as the source filed them. Rule as the data show it: active = GI50 up to about 1.1 µM and inactive = higher.
What was measured:
Assay in all cases: growth of human tumour cells (NCI), 48 h
COLO 205 = test system: COLO 205
M14 = test system: M14
MOLT-4 = test system: MOLT-4
HCT-116 = test system: HCT-116
BT-549 = test system: BT-549
NCI-H460 = test system: NCI-H460
ACHN = test system: ACHN
MDA-N = test system: MDA-N
NCI-H23 = test system: NCI-H23
MDA-MB-231 = test system: MDA-MB-231
RXF 393 = test system: RXF 393
OVCAR-4 = test system: OVCAR-4
SK-OV-3 = test system: SK-OV-3
UACC-257 = test system: UACC-257
Malme-3M = test system: Malme-3M
Hs-578T = test system: Hs-578T
SW-620 = test system: SW-620
SK-MEL-28 = test system: SK-MEL-28
UACC-62 = test system: UACC-62
PC-3 = test system: PC-3
HOP-92 = test system: HOP-92
RPMI-8226 = test system: RPMI-8226
A549 = test system: A549
SK-MEL-5 = test system: SK-MEL-5
OVCAR-8 = test system: OVCAR-8
786-0 = test system: 786-0
NCI-H226 = test system: NCI-H226
SNB-19 = test system: SNB-19
HL-60 = test system: HL-60
T47D = test system: T47D
HCT-15 = test system: HCT-15
MDA-MB-435 = test system: MDA-MB-435
HOP-62 = test system: HOP-62
HT-29 = test system: HT-29
KM12 = test system: KM12
IGROV-1 = test system: IGROV-1
TK-10 = test system: TK-10
EKVX = test system: EKVX
SN12C = test system: SN12C
MCF7 = test system: MCF7
NCI/ADR-RES = test system: NCI/ADR-RES
SNB-75 = test system: SNB-75
NCI-H522 = test system: NCI-H522
SR = test system: SR
U-251 = test system: U-251
LOX IMVI = test system: LOX IMVI
OVCAR-3 = test system: OVCAR-3
SF-268 = test system: SF-268
SK-MEL-2 = test system: SK-MEL-2
SF-539 = test system: SF-539
CCRF-CEM = test system: CCRF-CEM
CAKI-1 = test system: CAKI-1
K562 = test system: K562
OVCAR-5 = test system: OVCAR-5
UO-31 = test system: UO-31
A498 = test system: A498
SF-295 = test system: SF-295
HCC 2998 = test system: HCC 2998
DU-145 = test system: DU-145

Measured: GI50

CCOC(=S)SCC(=O)O
active: CCRF-CEM 1 µM
inactive: COLO 205 > 100 µM | M14 > 100 µM | MOLT-4 > 100 µM | HCT-116 > 100 µM | BT-549 > 100 µM | NCI-H460 > 100 µM | ACHN > 100 µM | MDA-N > 100 µM | NCI-H23 > 100 µM | MDA-MB-231 > 100 µM | RXF 393 > 100 µM | OVCAR-4 > 100 µM | SK-OV-3 > 100 µM | UACC-257 > 100 µM | Malme-3M > 100 µM | Hs-578T > 100 µM | SW-620 > 100 µM | SK-MEL-28 > 100 µM | UACC-62 > 100 µM | PC-3 > 100 µM | HOP-92 > 100 µM | RPMI-8226 > 100 µM | A549 > 100 µM | SK-MEL-5 > 100 µM | OVCAR-8 > 100 µM | 786-0 > 100 µM | NCI-H226 > 100 µM | SNB-19 > 100 µM | HL-60 2.01 µM | T47D > 100 µM | MDA-MB-435 > 100 µM | HOP-62 > 100 µM | HT-29 > 100 µM | KM12 > 100 µM | IGROV-1 > 100 µM | TK-10 > 100 µM | EKVX > 100 µM | SN12C > 100 µM | MCF7 > 100 µM | NCI/ADR-RES > 100 µM | SNB-75 > 100 µM | NCI-H522 > 100 µM | SR > 100 µM | U-251 > 100 µM | LOX IMVI > 100 µM | OVCAR-3 > 100 µM | SF-268 > 100 µM | SK-MEL-2 > 100 µM | SF-539 > 100 µM | CAKI-1 > 100 µM | K562 > 100 µM | OVCAR-5 > 100 µM | UO-31 > 100 µM | A498 > 100 µM | SF-295 > 100 µM
> 100 µM: HCT-15

N#Cc1c(-c2ccccc2)c(C#N)c(=S)n(C2OC(CO)C(O)C(O)C2O)c1N (centres undefined)
inactive: M14 > 100 µM | HCT-116 > 100 µM | BT-549 46.1 µM and 80 µM | NCI-H460 94 µM | ACHN 99.8 µM and 61.2 µM | MDA-N > 100 µM | NCI-H23 > 100 µM | MDA-MB-231 > 100 µM | RXF 393 > 100 µM | OVCAR-4 > 100 µM | UACC-257 > 100 µM | Malme-3M > 100 µM | Hs-578T 79.8 µM | SW-620 > 100 µM | SK-MEL-28 > 100 µM | UACC-62 > 100 µM | HCC 2998 > 100 µM and 96.4 µM | PC-3 > 100 µM | DU-145 > 100 µM | RPMI-8226 > 100 µM and 75.5 µM | A549 > 100 µM | SK-MEL-5 71.6 µM | OVCAR-8 > 100 µM | 786-0 > 100 µM | NCI-H226 > 100 µM | SNB-19 > 100 µM | HL-60 > 100 µM | T47D 52.6 µM and 68.5 µM | HT-29 > 100 µM | KM12 > 100 µM | SN12C > 100 µM | SNB-75 42.2 µM and 64.9 µM | NCI-H522 33.4 µM and 51.5 µM | SR > 100 µM | U-251 > 100 µM | LOX IMVI 86.9 µM | OVCAR-3 > 100 µM | SF-268 > 100 µM | SK-MEL-2 > 100 µM | SF-539 > 100 µM | CCRF-CEM > 100 µM and 50.9 µM | CAKI-1 92.7 µM | K562 > 100 µM and 59.4 µM | OVCAR-5 > 100 µM and 85.1 µM | A498 38.7 µM and 44.2 µM | SF-295 > 100 µM
> 100 µM: HCT-15

COc1ccc(-c2nc(-c3cnccn3)n(C/C=C/c3ccccc3)n2)cc1
inactive: COLO 205 > 100 µM | M14 > 100 µM | MOLT-4 > 100 µM | HCT-116 92.3 µM | BT-549 40.7 µM | NCI-H460 > 100 µM | MDA-N > 100 µM | NCI-H23 > 100 µM | MDA-MB-231 71.1 µM | OVCAR-4 21.3 µM | SK-OV-3 17.9 µM | UACC-257 > 100 µM | SW-620 > 100 µM | SK-MEL-28 35.2 µM | UACC-62 35.2 µM | HCC 2998 > 100 µM | PC-3 > 100 µM | HOP-92 11.5 µM | DU-145 > 100 µM | RPMI-8226 > 100 µM | A549 51.6 µM | SK-MEL-5 44.4 µM | OVCAR-8 47.9 µM | 786-0 17.3 µM | SNB-19 37.2 µM | HL-60 > 100 µM | T47D 48.2 µM | MDA-MB-435 > 100 µM | HOP-62 21.5 µM | HT-29 > 100 µM | KM12 > 100 µM | IGROV-1 48.1 µM | SN12C > 100 µM | MCF7 > 100 µM | NCI/ADR-RES 83.4 µM | SNB-75 21.8 µM | NCI-H522 32.8 µM | SR > 100 µM | U-251 46.7 µM | LOX IMVI > 100 µM | OVCAR-3 40.4 µM | SF-539 26.5 µM | CCRF-CEM > 100 µM | K562 > 100 µM | OVCAR-5 > 100 µM | UO-31 49.2 µM | SF-295 32.1 µM
> 100 µM: HCT-15

CC1OC(OC2C(OC(=O)[C@@H]3CC(C)(C)C[C@@H]4C5=CC[C@@H]6[C@@]7(C)C[C@H](O)[C@H](OC8OC(CO)C(O)C(O)C8O)[C@@](C)(CO)C7[C@H](O)C[C@@]6(C)[C@]5(C)C[C@@H](O)[C@H]43)OCC(O)C2O)C(O)C(O)C1O (some centres undefined)
inactive: COLO 205 6.28 µM | M14 > 15 µM | MOLT-4 > 15 µM | HCT-116 7.57 µM | BT-549 > 15 µM | NCI-H460 > 15 µM | ACHN > 15 µM | NCI-H23 7.05 µM | MDA-MB-231 > 15 µM | RXF 393 7.45 µM | OVCAR-4 12.9 µM | SK-OV-3 > 15 µM | UACC-257 > 15 µM | Hs-578T > 15 µM | SW-620 > 15 µM | UACC-62 > 15 µM | HCC 2998 8.69 µM | PC-3 > 15 µM | HOP-92 > 15 µM | DU-145 > 15 µM | SK-MEL-5 > 15 µM | OVCAR-8 > 15 µM | 786-0 > 15 µM | NCI-H226 > 15 µM | SNB-19 > 15 µM | HL-60 > 15 µM | T47D > 15 µM | MDA-MB-435 > 15 µM | HOP-62 > 15 µM | HT-29 11.5 µM | KM12 > 15 µM | IGROV-1 > 15 µM | TK-10 > 15 µM | EKVX 9.73 µM | SN12C 5.57 µM | MCF7 > 15 µM | NCI/ADR-RES > 15 µM | SNB-75 > 15 µM | NCI-H522 6.12 µM | U-251 > 15 µM | LOX IMVI > 15 µM | OVCAR-3 > 15 µM | SF-268 > 15 µM | SK-MEL-2 > 15 µM | SF-539 > 15 µM | CCRF-CEM > 15 µM | CAKI-1 > 15 µM | K562 > 15 µM | OVCAR-5 7.96 µM | UO-31 6.49 µM | SF-295 > 15 µM
> 15 µM: HCT-15

CCN(CC)CCC(=O)OC1C(C)=CC(C)C(=O)CC(C(C)CC2CCC(O)C(OC)C2)OC(=O)C2CCCCN2C(=O)C(=O)[C@@]2(O)OC(CCC2C)CC(OC)\C(C)=C/C=C/C=C/C(C)CC(C)C(=O)C1OC (some centres undefined)
inactive: COLO 205 12.1 µM | M14 10.4 µM | HCT-116 5.89 µM | MDA-N 8.61 µM | NCI-H23 11.7 µM | MDA-MB-231 12.8 µM | UACC-257 13.3 µM | SW-620 11.6 µM | HCC 2998 1.87 µM | 786-0 7.91 µM | NCI-H226 12.9 µM | SNB-19 4.34 µM | HL-60 1.96 µM | MDA-MB-435 4.57 µM | HT-29 1.91 µM | KM12 7.98 µM | TK-10 5.69 µM | SN12C 6.37 µM | NCI/ADR-RES 11.3 µM | NCI-H522 12.2 µM | U-251 10.4 µM | OVCAR-3 11.2 µM | OVCAR-5 10.3 µM
active: BT-549 < 0.01 µM | ACHN 1.05 µM | RXF 393 < 0.01 µM | OVCAR-4 < 0.01 µM | SK-OV-3 < 0.01 µM | Hs-578T < 0.01 µM | SK-MEL-28 0.0791 µM | PC-3 < 0.01 µM | HOP-92 < 0.01 µM | RPMI-8226 0.415 µM | A549 < 0.01 µM | T47D < 0.01 µM | HOP-62 < 0.01 µM | IGROV-1 < 0.01 µM | EKVX < 0.01 µM | MCF7 < 0.01 µM | SNB-75 < 0.01 µM | SR < 0.01 µM | LOX IMVI < 0.01 µM | SF-268 1.07 µM | SF-539 < 0.01 µM | CAKI-1 0.975 µM | K562 < 0.0183 µM | UO-31 < 0.01 µM | A498 < 0.01 µM | SF-295 < 0.01 µM
1.75 µM: HCT-15
